{
  "source": "patent US7456154B2",
  "about": "(priority 2001, dated 2008)",
  "key": {"[1]": {"experiment": "Stability of hEN101 in human plasma and blood", "type": "in vitro ADME", "method": "Exposure at room temperature to Li-heparin-treated blood caused a decay of hEN101 with a half-life in the order of 30 min."}, "AChE": {"system": "AChE", "experiment": "Plasma cholinesterase activities in monkeys (Ellman assay, acetylthiocholine hydrolysis)", "type": "in vivo, Cynomolgus monkey", "method": "In the 12 hr following the second day administration of hEN101, monkey plasma samples were collected and stored. Plasma cholinesterase activities were measured by spectrophotometry assessing the rate of hydrolysis of acetylthiocholine (measured by the Ellman assay, which quantifies the hydrolysis of acetylthiocholine) [Ellman, G. L., et al. (1961). Biochem. Pharmacol. 7, 88-95], in the absence or presence of iso-OMPA (a selective butyrylcholinesterase, BChE, inhibitor). […] When measured in the presence of 1×10^−5M iso-OMPA, AChE activity increased within the 5 hr post-injection."}, "AChE-R mRNA": {"system": "AChE-R mRNA", "experiment": "In situ hybridization of AChE-R mRNA in monkey spinal cord neurons", "type": "in vivo, Cynomolgus monkey", "method": "(§1) In situ hybridization: Tissues were fixed in 4% paraformaldehyde and cut into 7 μm paraffin embedded sections. Spinal cord sections were deparaffinized, rehydrated using serial ethanol dilutions and permeabilized with proteinase K (10 μg/ml at room temp.). Slides were exposed to 5′ biotinylated, fully 2′-oxymethylated AChE-R or AChE-S-specific 50-mer cRNA probes complementary to human ACHE pseudo-intron 4 or exon 6, respectively [Grisaru et al. (2001) id ibid.]. Hybridization was performed overnight at 52° C. in hybridization mixture containing 10 μg/ml probe, 50 μg/ml yeast tRNA, 50 μg/ml heparin and 50% formamide in 375 mM Na chloride, 37.5 mM Na citrate, pH 4.5. For monkey sections, the probe was constructed according to the human AChE-R sequence; for rat sections, according to the mouse sequence. Slides were washed to remove non-hybridized probe, blocked with 1% skim milk containing 0.01% Tween-20 and 2 mM levamisole, an alkaline phosphatase inhibitor used to suppress non-specific staining and incubate with streptavidin-alkaline phosphatase (Amersham Pharmacia). Fast Red™ substrate (Roche Diagnostics) was used for detection. DAPI staining (Sigma Chemical Co., St. Louis, Mo., USA) served to visualize nuclei. Microscope images were analyzed with Image Pro Plus 4.0 (Media Cybernetics) software.\nThis experiment was conducted with six (3 males and 3 females) purpose-bred 15 month-old (young adult) Cynomolgus monkeys, divided in three groups (1, 2 and 3) of one male and one female each. Groups 1 and 2 received hEN101 daily by o.g. for a period of 7 days, at a concentration of 0.15 and 0.50 μg/g/day, respectively. Group 3 received daily i.v. injections of hEN101 for a period of 7 days at a dosage of 0.50 μg/g/day.\nParaffin-embedded 7 μm spinal cord sections were examined by in situ hybridization for the levels of AChE-R and AChE-S mRNA.\nAChE-R-positive sections from monkey spinal cords were analyzed for the relation between cell body diameter and percentage of AChE-R positive cells (FIG. 15). Cells were divided into three categories according to their body diameter, and the percentage of AChE-R-positive cells from each category was evaluated. […] Either i.v. or p.o. administration of the higher EN101 concentration (500 μg/kg/day) reduced the percentage of AChE-R-positive neurons, compared to the lower concentration (p<0.05. Student's t test). […] We have yet to discover the functional correlate of cell size that determines the efficacy of antisense suppression of AChE-R expression."}, "AChE-S mRNA": {"system": "AChE-S mRNA", "experiment": "In situ hybridization of AChE-S mRNA in rat muscle", "type": "in vivo", "conditions": "24 h after single i.v. injection", "method": "as §1, with “software. […]” for “software.”"}, "EAMG rats": {"system": "EAMG rats", "experiment": "Electromyography: CMAP ratio under repetitive 3 Hz nerve stimulation in EAMG rats", "type": "in vivo, rat", "conditions": "for CMAP ratio (5th vs. 1st amplitude): average ± SEM"}},
  "data": [
    {"substance": "5′-CTGCCACGTTCTCCTGCACC-3′ [hEN101]", "values": [
      {"measurement": "Stability, remaining concentration", "setting": "[1]; 2 h in human plasma with EDTA at room temperature", "value": "> 90 % of original concentration"},
      {"measurement": "Half-life of decay", "setting": "[1]; Li-heparin-treated blood at room temperature", "value": "~30", "unit": "min"},
      {"measurement": "Stability, remaining concentration", "setting": "[1]; after 1 month at −20° C.", "value": "> 90 % of original concentration"},
      {"measurement": "Stability, remaining concentration", "setting": "[1]; following three freeze/thawing cycles", "value": "> 90 % of original concentration"},
      {"measurement": "Total plasma cholinesterase activity (largely serum BChE)", "setting": "AChE; 12 hr following second day administration, without iso-OMPA", "value": "generally unchanged"},
      {"measurement": "Post-injection increase of plasma AChE activity", "setting": "AChE; in presence of 1×10^−5M iso-OMPA, 500 μg/kg vs 150 μg/kg, more effective i.v.", "value": "effectively suppressed or attenuated"},
      {"measurement": "Percent of small AChE-R-positive cells (<70 μm diameter) vs naive monkeys", "setting": "AChE-R mRNA; 150 μg/kg/day", "value": "caused an increase"},
      {"measurement": "Effect on AChE-R labeling of larger neurons (>70 μm)", "setting": "AChE-R mRNA; 150-500 μg/kg/day", "value": "not discernable effect"},
      {"measurement": "AChE-R mRNA in spinal cord", "setting": "AChE-R mRNA; increasing daily dose from 0.15 (oral) to 0.50 (oral or i.v.) μg/g/day, i.v. more effective", "value": "significant reduction"},
      {"measurement": "Percentage of labeled small (23 to 40 μm) and medium-sized (40 to 70 μm) neurons", "setting": "AChE-R mRNA; lower to higher oral dose (150 to 500 μg/kg/day), even further with i.v.", "value": "decreased significantly"}
    ]},
    {"substance": "5′-CTGCGATATTTTCTTGTACC-3′ (chemistry not given here) [rEN101]", "values": [
      {"measurement": "AChE-S mRNA labeling in muscle", "setting": "AChE-S mRNA", "value": "only nominally affected"},
      {"measurement": "Duration of effective CMAP correction", "setting": "EAMG rats; 50 μg/Kg i.v.", "value": 24, "unit": "h"},
      {"measurement": "Duration of CMAP rectification", "setting": "EAMG rats; 500 μg/Kg i.v.", "value": 72, "unit": "h"},
      {"measurement": "Extent of CMAP rectification", "setting": "EAMG rats; 500 μg/Kg i.v.", "value": "up to 125 % of baseline"},
      {"measurement": "Average CMAP ratio in treated animals", "setting": "EAMG rats; EAMG rats, FIG. 9B inset", "value": "107.4±3.8 % of first depolarization"},
      {"measurement": "Duration of restoration of CMAP decline", "setting": "EAMG rats; doses between 10-500 μg/Kg", "value": "up to 72 h"},
      {"measurement": "Time to retrieve stable CMAP ratios", "setting": "EAMG rats; i.v., doses 10-500 μg/Kg", "value": "≤ 1", "unit": "h"},
      {"measurement": "IC50 of saturable CMAP response (dose response curve)", "setting": "EAMG rats; i.v., up to 5 h following injection (1 and 5 h)", "value": "< 0.01", "unit": "mg/kg"},
      {"measurement": "CMAP ratio (5th vs. 1st amplitude)", "setting": "EAMG rats; intravenous, EAMG rats, 0 h, 50 μg/Kg", "value": "0.87 ± 0.01"},
      {"measurement": "CMAP ratio (5th vs. 1st amplitude)", "setting": "EAMG rats; intravenous, EAMG rats, 1 h, 50 μg/Kg", "value": "1.00 ± 0.01"},
      {"measurement": "CMAP ratio (5th vs. 1st amplitude)", "setting": "EAMG rats; intravenous, EAMG rats, 5 h, 50 μg/Kg", "value": "0.98 ± 0.02"},
      {"measurement": "CMAP ratio (5th vs. 1st amplitude)", "setting": "EAMG rats; intravenous, EAMG rats, 24 h, 50 μg/Kg", "value": "1.00 ± 0.00"},
      {"measurement": "Effect of oral administration on CMAP decline", "setting": "EAMG rats; oral gavage, 50 μg/Kg oligonucleotide, 1000 μg/kg pyridostigmine, CMAP 1, 5, 24 h", "value": "as effective as 25 μg/Kg administered i.v."},
      {"measurement": "CMAP ratio (5th vs. 1st amplitude)", "setting": "EAMG rats; oral, EAMG rats, 0 h, 50 μg/Kg oligonucleotide, 1000 μg/Kg pyridostigmine", "value": "0.84 ± 0.03"},
      {"measurement": "CMAP ratio (5th vs. 1st amplitude)", "setting": "EAMG rats; oral, EAMG rats, 1 h, 50 μg/Kg oligonucleotide, 1000 μg/Kg pyridostigmine", "value": "0.97 ± 0.02"},
      {"measurement": "CMAP ratio (5th vs. 1st amplitude)", "setting": "EAMG rats; oral, EAMG rats, 5 h, 50 μg/Kg oligonucleotide, 1000 μg/Kg pyridostigmine", "value": "0.97 ± 0.03"},
      {"measurement": "CMAP ratio (5th vs. 1st amplitude)", "setting": "EAMG rats; oral, EAMG rats, 24 h, 50 μg/Kg oligonucleotide, 1000 μg/Kg pyridostigmine", "value": "1.01 ± 0.01"},
      {"measurement": "CMAP ratio 24 h following single oral administration", "setting": "EAMG rats; single oral dose, rEN101 50 μg/kg, pyridostigmine 1000 μg/kg", "value": "no decline was detected"}
    ]}
  ]
}
